Assay results published in US7390806B2, “Antibiotics containing borinic acid complexes and methods of use” (Anacor Pharmaceuticals, Inc., priority 2002, dated 2008).
Values after ≈ are worked out from the molar mass of the structure shown.

What was measured:
[1] = test system: Candida parapsilosis ATCC 22019; assay: Antifungal in vitro MIC, Candida parapsilosis; type: cell-based; conditions: for MIC Candida parapsilosis ATCC 22019: percent inhibition >= 80%
E. faecalis ATCC 29212 = assay: MIC determination, E. faecalis ATCC 29212; type: cell-based, Enterococcus faecalis; conditions: Table 1
E. faecium CT-26 = assay: MIC determination, E. faecium CT-26; type: cell-based, Enterococcus faecium; conditions: Table 1
[2] = test system: S. epidermidis ATCC 12228; assay: MIC determination, S. epidermidis ATCC 12228; type: cell-based, Staphylococcus epidermidis; conditions: Table 1
[3] = test system: Candida glabrata ATCC 15126; assay: Antifungal in vitro MIC, Candida glabrata; type: cell-based; conditions: for MIC Candida glabrata ATCC 15126: percent inhibition >= 80%
[4] = test system: M. catarrhalis ATCC 25238; assay: MIC determination, M. catarrhalis ATCC 25238; type: cell-based; conditions: Table 1
[5] = test system: Aspergillus fumigatus ATCC 204305; assay: Antifungal in vitro MIC, Aspergillus fumigatus; type: cell-based; conditions: for MIC Aspergillus fumigatus ATCC 204305: percent inhibition >= 80%
[6] = test system: Trichophyton mentagrophytes ATCC 10270; assay: Antifungal in vitro MIC, Trichophyton mentagrophytes; type: cell-based; conditions: for MIC Trichophyton mentagrophytes ATCC 10270: percent inhibition >= 80%
S. aureus ATCC 29213 = assay: MIC determination, S. aureus ATCC 29213; type: cell-based, Staphylococcus aureus; conditions: Table 1
[7] = test system: Candida albicans ATCC 90028; assay: Antifungal in vitro MIC, Candida albicans; type: cell-based; conditions: for MIC Candida albicans ATCC 90028: percent inhibition >= 80%
M. tuberculosis H37Rv = assay: Anti-mycobacterium in vitro activity, H37Rv; type: cell-based, Mycobacterium tuberculosis; conditions: Sensitive strain
[8] = test system: Microsporum canis ATCC 10214; assay: Antifungal in vitro MIC, Microsporum canis; type: cell-based; conditions: for MIC Microsporum canis ATCC 10214: percent inhibition >= 80%

Structure (SMILES) | MIC ([1]; Lodderomyces parapsilosis, ATCC22019, read-out: MIC Candida parapsilosis ATCC 22019) [µg/mL] | MIC E. faecalis ATCC 29212 (E. faecalis ATCC 29212) [micrograms per ml] | MIC E. faecium CT-26 (E. faecium CT-26) [micrograms per ml] | MIC S. epidermidis ATCC 12228 [2] [micrograms per ml] | MIC ([3]; Nakaseomyces glabratus, ATCC15126, read-out: MIC Candida glabrata ATCC 15126) [µg/mL] | MIC M. catarrhalis ATCC 25238 [4] [micrograms per ml] | MIC ([5]; Aspergillus fumigatus, ATCC204305, read-out: MIC Aspergillus fumigatus ATCC 204305) [µg/mL] | MIC ([6]; Trichophyton mentagrophytes, ATCC10270, read-out: MIC Trichophyton mentagrophytes ATCC 10270) [µg/mL] | MIC S. aureus ATCC 29213 (S. aureus ATCC 29213) [micrograms per ml] | MIC ([7]; Candida albicans, ATCC90028, read-out: MIC Candida albicans ATCC 90028) [µg/mL] | M. tuberculosis MIC H37Rv (M. tuberculosis H37Rv) [µg/mL] | MIC ([8]; Microsporum canis, ATCC10214, read-out: MIC Microsporum canis ATCC 10214) [µg/mL] | MIC Candida parapsilosis ATCC 22019 [1] [µg/mL] | MIC Candida glabrata ATCC 15126 [3] [µg/mL] | MIC Aspergillus fumigatus ATCC 204305 [5] [µg/mL] | MIC Trichophyton mentagrophytes ATCC 10270 [6] [µg/mL] | MIC Candida albicans ATCC 90028 [7] [µg/mL] | MIC Microsporum canis ATCC 10214 [8] [µg/mL]
Oc1cccc2cccnc12 [Compound 53, 8-hydroxyquinoline] | 32 (≈ 220 µM) | 64 | 4 | 2 | > 32 | 2 | > 32 | > 32 | 2 | 1 (≈ 6.89 µM) | 0.775 | 16 (≈ 110 µM) |  |  |  |  |  | 
Cc1ccc(B(OCCc2ccccn2)c2ccc(C)c(Cl)c2)cc1Cl [Compound 131, Bis(3-Chloro-4-methylphenyl)borinic acid 2-pyridylethanol] |  |  |  |  |  |  |  |  |  |  |  |  | >32 | >32 | >32 | 32 (≈ 83.3 µM) | 2 (≈ 5.21 µM) | 32 (≈ 83.3 µM)
C[C@@H]1[C@H](O)[C@@H](C)/C=C/C=C/C=C/C=C/C=C/C=C/C=C/[C@H](O[C@@H]2O[C@H](C)[C@@H](O)[C@H](N)[C@@H]2O)C[C@@H]2O[C@](O)(C[C@@H](O)C[C@@H](O)[C@H](O)CC[C@@H](O)C[C@@H](O)CC(=O)O[C@H]1C)C[C@H](O)[C@H]2C(=O)O [Amphotericin B, reference compound] |  |  |  |  |  |  |  |  |  |  |  |  | 0.75 (≈ 0.812 µM) | 0.75 (≈ 0.812 µM) | 1 (≈ 1.08 µM) | 1 (≈ 1.08 µM) | 1 (≈ 1.08 µM) | 0.5 (≈ 0.541 µM)
CCn1ccnc1COB(c1ccc(C)c(Cl)c1)c1ccc(C)c(Cl)c1 [Compound 129, Bis(3-Chloro-4-methylphenyl)borinic acid 1-ethyl-2-(hydroxymethyl)-imidazole ester] |  |  |  |  |  |  |  |  |  |  |  |  | 32 (≈ 82.7 µM) | >32 | >32 | 32 (≈ 82.7 µM) | 1 (≈ 2.58 µM) | 16 (≈ 41.3 µM)
Cc1ccc(B(OCc2cn(C)cn2)c2ccc(C)c(Cl)c2)cc1Cl [Compound 130, Bis(3-Chloro-4-methylphenyl)borinic acid 1-methyl-4-(hydroxymethyl)-imidazole ester] |  |  |  |  |  |  |  |  |  |  |  |  | 0.5 (≈ 1.34 µM) | 0.5 (≈ 1.34 µM) | 0.5 (≈ 1.34 µM) | 0.5 (≈ 1.34 µM) | 1 (≈ 2.68 µM) | 0.5 (≈ 1.34 µM)
Cc1ccc(B(OCc2nccn2C)c2ccc(C)c(Cl)c2)cc1Cl [Compound 128, Bis(3-Chloro-4-methylphenyl)borinic acid 1-methyl-2-(hydroxymethyl)-imidazole ester] |  |  |  |  |  |  |  |  |  |  |  |  | 16 (≈ 42.9 µM) | 32 (≈ 85.8 µM) | >32 | 16 (≈ 42.9 µM) | 1 (≈ 2.68 µM) | 12 (≈ 32.2 µM)
